Measured values: patent US6548544B1, “Method of treatment of priapism without raising systemic blood pressure” (The National University of Singapore, priority 1999, dated 2003)

Columns and labels:
[1] = test system: Pharmacologically Induced Prolonged Erection (Pipe); test: Effect on papaverine- and phenoxybenzamine-induced prolonged erection (PIPE), penile length, baboons; assay type: in vivo, baboon; settings: for increase in penile length: intracavernous papaverine (40 mg) or phenoxybenzamine (3 mg), within 10 min after administration
Experimental: Six male baboons weighing between 8 kg and 12 kg were used for the experiment. The animals were sedated with ketamine and anaesthetised with intravenous pentobarbitone injected through an indwelling venous catheter. Drugs were injected into the right corpora cavornosa at the mid-third of the shaft using a 29G needle and 1 ml syringe. Blood pressure was monitored through a cannulated femoral artery connected to the transducer. A measuring tape was used to measure penile length visually from a marked point at the base of the penis to the tip of urethral orifice. Changes in penile length were recorded for a period of 100 min after injection.
Intracavernous injection of papaverine (40 mg) or phenoxybenzamine (3 mg) which produced maximal penile length within 20 and 40 min were repeated one week later and prostaglandin A2 was given at the peak time of the turgidity.
In baboons, intracavernous injection of papaverine (40 mg) or phenoxybenzamine (3 mg) produced a 130% increase in penile length within […] after administration (Table 1). This increase in penile length lasted for more than 100 min. This was repeated one week later and when prostaglandin A2 was injected intracavernosally at the maximum rigidity 20 min after the drug administration, the latter produced a marked reduction in penile length and within 40 min of injection, the penile size reduced to the original state of rugosity (Table 1). The fall in systemic blood pressure produced by prostaglandin A2 ranged from 8 to 16 mmHg. Each value reported in Table 1 represents the mean of six experiments.

cavernosum = test: Other prostaglandins tested using the above protocol (contraction of the cavernosum); assay type: in vivo; settings: testing using the above protocol "will demonstrate"

Question: Which “increase in penile length” value [1] does the source give for `COc1ccc(Cc2nccc3cc(OC)c(OC)cc23)cc1OC` [Papaverine, papaverine] here?
Answer: Its value is 130%.

Question: What about the “Mean Change in Penile Length (% of Control)” value (shortened to “Mean Change … (% of Control)”) ([1]; papaverine 40 mg intracavernous alone, 1 min after injection) of the same compound?
Answer: The value was 30%.

Question: And the “Mean Change … (% of Control)” value ([1]; papaverine 40 mg intracavernous alone, 2 min after injection)?
Answer: The value was 40%.

Question: And the “Mean Change … (% of Control)” value ([1]; papaverine 40 mg intracavernous alone, 5 min after injection)?
Answer: The value was 52%.

Question: What about the “Mean Change … (% of Control)” value ([1]; papaverine 40 mg intracavernous alone, 10 min after injection) of the same compound?
Answer: The value was 130%.

Question: And the “Mean Change … (% of Control)” value ([1]; papaverine 40 mg intracavernous alone, 20 min after injection)?
Answer: The value was 130%.

Question: And the “Mean Change … (% of Control)” value ([1]; papaverine 40 mg intracavernous alone, 40 min after injection)?
Answer: The value was 130%.

Question: What about the “Mean Change … (% of Control)” value ([1]; papaverine 40 mg intracavernous alone, 60 min after injection) of the same compound?
Answer: The value was 130%.

Question: And the “Mean Change … (% of Control)” value ([1]; papaverine 40 mg intracavernous alone, 80 min after injection)?
Answer: The value was 130%.

Question: What about the “Mean Change … (% of Control)” value ([1]; papaverine 40 mg intracavernous alone, 100 min after injection) of the same compound?
Answer: The value was 130%.

Question: What does the source list for `CC(COc1ccccc1)N(CCCl)Cc1ccccc1` (centres unmarked) [Phenoxybenzamine, phenoxybenzamine]?
Answer: increase in penile length [1]: 130%; Mean Change in Penile Length (% of Control) ([1]; phenoxybenzamine 3 mg intracavernous alone, 1 min after injection): 10%; Mean Change in Penile Length (% of Control) ([1]; phenoxybenzamine 3 mg intracavernous alone, 2 min after injection): 15%; Mean Change in Penile Length (% of Control) ([1]; phenoxybenzamine 3 mg intracavernous alone, 5 min after injection): 15%; Mean Change in Penile Length (% of Control) ([1]; phenoxybenzamine 3 mg intracavernous alone, 10 min after injection): 48%; Mean Change in Penile Length (% of Control) ([1]; phenoxybenzamine 3 mg intracavernous alone, 20 min after injection): 80%; Mean Change in Penile Length (% of Control) ([1]; phenoxybenzamine 3 mg intracavernous alone, 40 min after injection): 120%; Mean Change in Penile Length (% of Control) ([1]; phenoxybenzamine 3 mg intracavernous alone, 60 min after injection): 120%; Mean Change in Penile Length (% of Control) ([1]; phenoxybenzamine 3 mg intracavernous alone, 80 min after injection): 120%; Mean Change in Penile Length (% of Control) ([1]; phenoxybenzamine 3 mg intracavernous alone, 100 min after injection): 120%

Question: With `CCCCC[C@H](O)/C=C/[C@H]1C=CC(=O)[C@@H]1CCCCCCC(=O)O` [prostaglandin A1] as the compound, how does the “contraction of the cavernosum” value (cavernosum) read?
Answer: The value was “effective in inducing, promoting, or otherwise facilitating contraction of the cavernosum but are not as active as prostaglandin A2”.

Question: With `CCCCC[C@H](O)/C=C/C1=C(CCCCCCC(=O)O)C(=O)CC1` [prostaglandin B1] as the compound, how does the “contraction of the cavernosum” value (cavernosum) read?
Answer: The value was “effective in inducing, promoting, or otherwise facilitating contraction of the cavernosum but are not as active as prostaglandin A2”.

Question: `CCCCC[C@H](O)/C=C/C1=C(C/C=C\CCCC(=O)O)C(=O)CC1` [prostaglandin B2] was tested. Which “contraction of the cavernosum” value (cavernosum) did it give?
Answer: The value was “effective in inducing, promoting, or otherwise facilitating contraction of the cavernosum but are not as active as prostaglandin A2”.
